Patent US8927500B2, “Peptidomimetic macrocycles” (Aileron Therapeutics, Inc., priority 2012, dated 2015)
pIC50, pKi: −log10 of the molar value. Where two headings read alike, the source gives them in different places. Where a SMILES comes first, the peptide text is derived from it. Bridges are numbered along the chain shown (N, C = ends). [ ]: non-standard residue; d: D form. Phe(4-B(OH)2) = N[C@@H](Cc1ccc(B(O)O)cc1)C(=O)O; R8 = C=CCCCCCC[C@@](C)(N)C(=O)O; S5 = C=CCCC[C@](C)(N)C(=O)O; Aib = CC(C)(N)C(=O)O; Sar = CNCC(=O)O

Legend:
MDMX = target: T1, MDMX (Homo sapiens, UniProt O15151); assay: Competitive fluorescence polarization assay for MDMX; assay type: binding; settings: competitive FP assay
T1 sequence (O15151 1-125): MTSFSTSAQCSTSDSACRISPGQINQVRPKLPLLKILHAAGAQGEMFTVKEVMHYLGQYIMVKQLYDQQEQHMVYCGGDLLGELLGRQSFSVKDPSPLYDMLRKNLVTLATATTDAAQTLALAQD

MDM2 = MDM2 (Homo sapiens, UniProt Q00987); assay: Competitive fluorescence polarization assay for MDM2; assay type: binding; settings: competitive FP assay, MDM2
Sequence of MDM2 (Q00987 1-125): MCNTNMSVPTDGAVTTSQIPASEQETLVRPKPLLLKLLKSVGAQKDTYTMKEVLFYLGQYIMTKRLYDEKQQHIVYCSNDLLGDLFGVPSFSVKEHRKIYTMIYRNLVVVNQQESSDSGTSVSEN

Compound | pKi (MDMX; read-out: Ki (MDMX)) | pKi (MDM2; read-out: Ki (MDM2)) | pKi (MDMX; Ki (MDMX)) | pKi (MDM2; Ki (MDM2)) | further results
CC(=O)N[C@@H](CC(C)C)C(=O)N[C@H](C(=O)N[C@@H](Cc1ccccc1)C(=O)N[C@]1(C)CCCCCCCCCCC[C@@](C)(C(=O)N[C@@H](C)C(=O)N[C@@H](C)C(=O)N[C@@H](C)C(=O)N[C@@H](C)C(=O)N[C@@H](C)C(=O)N[C@H](C)C(N)=O)NC(=O)[C@H](CC(C)C)NC(=O)[C@H](CCC(N)=O)NC(=O)[C@H](C)NC(=O)[C@H](Cc2c[nH]c3ccccc23)NC(=O)[C@H](Cc2ccc(O)cc2)NC(=O)[C@H](CCC(=O)O)NC1=O)[C@@H](C)O [compound 445] |  |  | 7.00 to 8.00 | > 8.00 | pIC50 (MDMX; IC50 (MDMX)): 6.00 to 7.00; pIC50 (MDM2; IC50 (MDM2)): 7.00 to 8.00
CC(=O)N[C@@H](CC(C)C)C(=O)N[C@H](C(=O)N[C@@H](Cc1ccccc1)C(=O)N[C@]1(C)CCCCCCC=CCCC[C@@](C)(C(=O)N[C@@H](C)C(=O)N[C@@H](C)C(=O)N[C@@H](C)C(=O)N[C@@H](C)C(=O)N[C@@H](C)C(=O)N[C@H](C)C(N)=O)NC(=O)[C@H](CC(C)C)NC(=O)[C@H](CCC(N)=O)NC(=O)[C@H](C)NC(=O)[C@H](Cc2c[nH]c3ccccc23)NC(=O)[C@H](Cc2ccc(B(O)O)cc2)NC(=O)[C@H](CCC(=O)O)NC1=O)[C@@H](C)O [compound 556] (Ac-LTF[R8]E[Phe(4-B(OH)2)]WAQL[S5]AAAAA[dA]-NH2; staple 4-11) |  |  | 7.00 to 8.00 | > 8.00 | 
CC(=O)N[C@@H](C)C(=O)N[C@@H](C)C(=O)N[C@@H](C)C(=O)N[C@@H](CC(C)C)C(=O)N[C@H](C(=O)N[C@@H](Cc1ccccc1)C(=O)N[C@]1(C)CCCCCC/C=C/CCC[C@@](C)(C(=O)N[C@@H](C)C(=O)N[C@@H](C)C(=O)N[C@@H](C)C(=O)N[C@@H](C)C(=O)N[C@@H](C)C(=O)N[C@H](C)C(N)=O)NC(=O)[C@H](CC(C)C)NC(=O)[C@H](CCC(N)=O)NC(=O)[C@H](C)NC(=O)[C@H](Cc2c[nH]c3ccccc23)NC(=O)[C@H](Cc2ccc(O)cc2)NC(=O)[C@H](CCC(=O)O)NC1=O)[C@@H](C)O [compound 557] (Ac-AAALTF[R8]EYWAQL[S5]AAAAA[dA]-NH2; staple (E) 7-14) |  |  | 7.00 to 8.00 | 7.00 to 8.00 | 
CC(=O)N[C@@H](CCCNC(=N)N)C(=O)N[C@H](C(=O)N[C@@H](Cc1ccccc1)C(=O)N[C@]1(C)CCCCCCC=CCCC[C@@](C)(C(=O)N[C@@H](C)C(=O)N[C@@H](C)C(=O)N[C@@H](C)C(=O)N[C@@H](C)C(=O)N[C@@H](C)C(=O)N[C@H](C)C(N)=O)NC(=O)[C@H](CC(C)C)NC(=O)[C@H](CCC(N)=O)NC(=O)[C@H](C)NC(=O)[C@H](Cc2c[nH]c3ccccc23)NC(=O)[C@H](Cc2ccc(O)cc2)NC(=O)[C@H](CCC(=O)O)NC1=O)[C@@H](C)O [compound 559] (Ac-RTF[R8]EYWAQL[S5]AAAAA[dA]-NH2; staple 4-11) |  |  | 7.00 to 8.00 | 7.00 to 8.00 | 
CC(=O)N[C@@H](CC(C)C)C(=O)N[C@H](C(=O)N[C@@H](C)C(=O)N[C@]1(C)CCCCCCC=CCCC[C@@](C)(C(=O)N[C@@H](C)C(=O)N[C@@H](C)C(=O)N[C@@H](C)C(=O)N[C@@H](C)C(=O)N[C@@H](C)C(=O)N[C@H](C)C(N)=O)NC(=O)[C@H](CC(C)C)NC(=O)[C@H](CCC(N)=O)NC(=O)[C@H](C)NC(=O)[C@H](Cc2c[nH]c3ccccc23)NC(=O)[C@H](Cc2ccc(O)cc2)NC(=O)[C@H](CCC(=O)O)NC1=O)[C@@H](C)O [compound 560] (Ac-LTA[R8]EYWAQL[S5]AAAAA[dA]-NH2; staple 4-11) |  |  | < 6.00 | < 6.00 | 
CC(=O)N[C@@H](CC(C)C)C(=O)N[C@H](C(=O)N[C@@H](Cc1ccccc1)C(=O)N[C@]1(C)CCCCCCC=CCCC[C@@](C)(C(=O)N[C@@H](C)C(=O)N[C@@H](C)C(=O)N[C@@H](C)C(=O)N[C@@H](C)C(=O)N[C@@H](C)C(=O)N[C@H](C)C(N)=O)NC(=O)[C@H](CC(C)C)NC(=O)[C@H](CCC(N)=O)NC(=O)C(C)(C)NC(=O)[C@H](Cc2c[nH]c3ccccc23)NC(=O)[C@H](Cc2ccc(O)cc2)NC(=O)[C@H](CCC(=O)O)NC1=O)[C@@H](C)O [compound 561] (Ac-LTF[R8]EYW[Aib]QL[S5]AAAAA[dA]-NH2; staple 4-11) |  |  | 7.00 to 8.00 | > 8.00 | 

Further lines, with some results ahead:

pKi (MDMX; read-out: Ki (MDMX)) | pKi (MDM2; read-out: Ki (MDM2)) | Compound | pKi (MDMX; Ki (MDMX)) | pKi (MDM2; Ki (MDM2)) | further results
> 8.00 | > 8.00 | CCCC[C@H](NC(=O)[C@H](C)NC(=O)[C@H](C)NC(=O)C(C)(C)NC(=O)[C@H](CC(C)C)NC(=O)[C@H](CCC(N)=O)NC(=O)[C@H](C)NC(=O)[C@H](Cc1c[nH]c2ccccc12)NC(=O)[C@H](Cc1ccc(O)cc1)NC(=O)[C@H](C)NC(=O)C(C)(C)NC(=O)[C@H](Cc1ccccc1)NC(=O)[C@@H](NC(=O)[C@H](CC(C)C)NC(C)=O)[C@@H](C)O)C(=O)N[C@@H](C)C(N)=O [compound 412] |  |  | pIC50 (MDMX; read-out: IC50 (MDMX)): 7.00 to 8.00; pIC50 (MDM2; read-out: IC50 (MDM2)): > 8.00
7.00 to 8.00 | > 8.00 | CC(=O)N[C@@H](CC(C)C)C(=O)N[C@H](C(=O)N[C@@H](Cc1ccccc1)C(=O)N[C@]1(C)CCCCCCCCCCC[C@@](C)(C(=O)N[C@@H](CO)C(=O)N[C@@H](C)C(=O)N[C@@H](C)C(N)=O)NC(=O)[C@H](CC2CCC2)NC(=O)[C@H](CCC(N)=O)NC(=O)[C@H](C)NC(=O)[C@H](Cc2c[nH]c3ccccc23)NC(=O)[C@H](Cc2ccc(O)cc2)NC(=O)[C@H](CCC(=O)O)NC1=O)[C@@H](C)O [compound 434] |  |  | pIC50 (MDMX; read-out: IC50 (MDMX)): 7.00 to 8.00; pIC50 (MDM2; read-out: IC50 (MDM2)): 7.00 to 8.00
7.00 to 8.00 | 7.00 to 8.00 | CC(=O)N[C@@H](CC(C)C)C(=O)N[C@H](C(=O)N[C@@H](Cc1ccccc1)C(=O)N[C@]1(C)CCCCCC/C=C/CCC[C@@](C)(C(=O)N[C@@H](C)C(=O)NC(C)(C)C(=O)N[C@@H](C)C(=O)N[C@@H](C)C(=O)N[C@@H](C)C(=O)N[C@H](C)C(N)=O)NC(=O)[C@H](CC(C)C)NC(=O)[C@H](CCC(N)=O)NC(=O)[C@H](C)NC(=O)[C@H](Cc2c[nH]c3ccccc23)NC(=O)[C@H](Cc2ccc(O)cc2)NC(=O)[C@H](CCC(=O)O)NC1=O)[C@@H](C)O [compound 562] (Ac-LTF[R8]EYWAQL[S5]A[Aib]AAA[dA]-NH2; staple (E) 4-11) |  |  | 
7.00 to 8.00 | 7.00 to 8.00 | CC(=O)N[C@@H](CC(C)C)C(=O)N[C@H](C(=O)N[C@@H](Cc1ccccc1)C(=O)N[C@]1(C)CCCCCCC=CCCC[C@@](C)(C(=O)N[C@@H](C)C(=O)N[C@@H](C)C(=O)NC(C)(C)C(=O)N[C@@H](C)C(=O)N[C@@H](C)C(=O)N[C@H](C)C(N)=O)NC(=O)[C@H](CC(C)C)NC(=O)[C@H](CCC(N)=O)NC(=O)[C@H](C)NC(=O)[C@H](Cc2c[nH]c3ccccc23)NC(=O)[C@H](Cc2ccc(O)cc2)NC(=O)[C@H](CCC(=O)O)NC1=O)[C@@H](C)O [compound 563] (Ac-LTF[R8]EYWAQL[S5]AA[Aib]AA[dA]-NH2; staple 4-11) |  |  | 
7.00 to 8.00 | > 8.00 | CC(=O)N[C@@H](CC(C)C)C(=O)N[C@H](C(=O)N[C@@H](Cc1ccccc1)C(=O)N[C@]1(C)CCCCCCC=CCCC[C@@](C)(C(=O)N[C@@H](C)C(=O)N(C)CC(=O)N[C@@H](C)C(=O)N[C@@H](C)C(=O)N[C@@H](C)C(=O)N[C@H](C)C(N)=O)NC(=O)[C@H](CC(C)C)NC(=O)[C@H](CCC(N)=O)NC(=O)[C@H](C)NC(=O)[C@H](Cc2c[nH]c3ccccc23)NC(=O)[C@H](Cc2ccc(O)cc2)NC(=O)[C@H](CCC(=O)O)NC1=O)[C@@H](C)O [compound 574] (Ac-LTF[R8]EYWAQL[S5]A[Sar]AAA[dA]-NH2; staple 4-11) |  |  | 
7.00 to 8.00 | > 8.00 | CC(=O)N[C@@H](CC(C)C)C(=O)N[C@H](C(=O)N[C@@H](Cc1ccccc1)C(=O)N[C@]1(C)CCCCCCC=CCCC[C@@](C)(C(=O)N[C@@H](C)C(=O)N[C@@H](C)C(=O)N(C)CC(=O)N[C@@H](C)C(=O)N[C@@H](C)C(=O)N[C@H](C)C(N)=O)NC(=O)[C@H](CC(C)C)NC(=O)[C@H](CCC(N)=O)NC(=O)[C@H](C)NC(=O)[C@H](Cc2c[nH]c3ccccc23)NC(=O)[C@H](Cc2ccc(O)cc2)NC(=O)[C@H](CCC(=O)O)NC1=O)[C@@H](C)O [compound 575] (Ac-LTF[R8]EYWAQL[S5]AA[Sar]AA[dA]-NH2; staple 4-11) |  |  | 
7.00 to 8.00 | > 8.00 | CC(=O)N[C@@H](CC(C)C)C(=O)N[C@H](C(=O)N[C@@H](Cc1ccccc1)C(=O)N[C@]1(C)CCCCCCC=CCCC[C@@](C)(C(=O)N[C@@H](C)C(=O)N[C@@H](C)C(=O)N[C@@H](C)C(=O)N(C)CC(=O)N[C@@H](C)C(=O)N[C@H](C)C(N)=O)NC(=O)[C@H](CC(C)C)NC(=O)[C@H](CCC(N)=O)NC(=O)[C@H](C)NC(=O)[C@H](Cc2c[nH]c3ccccc23)NC(=O)[C@H](Cc2ccc(O)cc2)NC(=O)[C@H](CCC(=O)O)NC1=O)[C@@H](C)O [compound 576] (Ac-LTF[R8]EYWAQL[S5]AAA[Sar]A[dA]-NH2; staple 4-11) |  |  | 
7.00 to 8.00 | > 8.00 | CC(=O)N[C@@H](CC(C)C)C(=O)N[C@H](C(=O)N[C@@H](Cc1ccccc1)C(=O)N[C@]1(C)CCCCCCC=CCCC[C@@](C)(C(=O)N[C@@H](C)C(=O)N[C@@H](C)C(=O)N[C@@H](C)C(=O)N[C@@H](C)C(=O)N(C)CC(=O)N[C@H](C)C(N)=O)NC(=O)[C@H](CC(C)C)NC(=O)[C@H](CCC(N)=O)NC(=O)[C@H](C)NC(=O)[C@H](Cc2c[nH]c3ccccc23)NC(=O)[C@H](Cc2ccc(O)cc2)NC(=O)[C@H](CCC(=O)O)NC1=O)[C@@H](C)O [compound 577] (Ac-LTF[R8]EYWAQL[S5]AAAA[Sar][dA]-NH2; staple 4-11) |  |  | 
7.00 to 8.00 | 7.00 to 8.00 | CC(=O)N[C@@H](CC(C)C)C(=O)N[C@H](C(=O)N[C@@H](Cc1ccccc1)C(=O)N[C@]1(C)CCCCCCC=CCCC[C@@](C)(C(=O)N[C@@H](C)C(=O)N[C@@H](C)C(=O)N[C@@H](C)C(=O)N[C@@H](C)C(=O)N[C@H](C)C(N)=O)NC(=O)[C@H](CC(C)C)NC(=O)[C@H](CCC(N)=O)NC(=O)[C@H](C)NC(=O)[C@H](Cc2c[nH]c3ccccc23)NC(=O)[C@H](Cc2ccc(O)cc2)NC(=O)[C@H](CCC(=O)O)NC1=O)[C@@H](C)O [compound 585] (Ac-LTF[R8]EYWAQL[S5]AAAA[dA]-NH2; staple 4-11) |  |  | 
